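Interpolation was linear, between the two tested concentrations surrounding the appropriate level; five concentrations were tested over 48 hours in 96-well plates. The concentration for 50% growth inhibition is given as GI50.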 Activity calls are given as the source filed them. No stated cut-off is given here; in the data, active = GI50 up to about 1.1 µM and inactive = higher.
Columns and labels:
Assay in all cases: NCI tumour cell line growth inhibition, 48 h
SK-OV-3 = tested on: SK-OV-3
OVCAR-3 = tested on: OVCAR-3
NCI/ADR-RES = tested on: NCI/ADR-RES
SK-MEL-28 = tested on: SK-MEL-28
SNB-75 = tested on: SNB-75
CAKI-1 = tested on: CAKI-1
M14 = tested on: M14
LOX IMVI = tested on: LOX IMVI
TK-10 = tested on: TK-10
CCRF-CEM = tested on: CCRF-CEM
HCT-116 = tested on: HCT-116
A549 = tested on: A549
NCI-H226 = tested on: NCI-H226
T47D = tested on: T47D
MDA-N = tested on: MDA-N
SF-539 = tested on: SF-539
DU-145 = tested on: DU-145
SF-295 = tested on: SF-295
MCF7 = tested on: MCF7
BT-549 = tested on: BT-549

Measured: GI50

COc1cc2c(cc1O)CC1c3c(cc(O)c(OC)c3-2)CCN1C (stereo not drawn)
inactive: SK-OV-3 > 100 µM | OVCAR-3 98.9 µM | NCI/ADR-RES > 100 µM | SK-MEL-28 > 100 µM | SNB-75 81.1 µM | CAKI-1 > 100 µM | M14 > 100 µM | LOX IMVI > 100 µM | TK-10 > 100 µM | CCRF-CEM > 100 µM | HCT-116 > 78 µM | A549 > 100 µM | NCI-H226 69.7 µM | T47D > 100 µM | MDA-N > 100 µM | SF-539 > 39.9 µM | DU-145 > 100 µM | SF-295 > 100 µM | MCF7 > 100 µM | BT-549 > 100 µM

O=C(NC1=C(Cl)C(=O)c2ccccc2C1=O)c1ccccc1
inactive: OVCAR-3 19.1 µM | NCI/ADR-RES 18.5 µM | SK-MEL-28 44.8 µM | SNB-75 65 µM | M14 50.8 µM | TK-10 23 µM | CCRF-CEM 30.9 µM | HCT-116 17.3 µM | A549 52.5 µM | NCI-H226 24.5 µM | T47D 22.1 µM | MDA-N 5.04 µM | SF-539 50.6 µM | DU-145 55.1 µM | SF-295 36 µM | MCF7 19.2 µM | BT-549 19.9 µM

COc1cc2c(cc1O)c(O)cc1c3cc(OC)c(OC)cc3c[n+](C)c21
inactive: SK-OV-3 > 100 µM | OVCAR-3 20.7 µM | NCI/ADR-RES > 85.9 µM | SK-MEL-28 > 100 µM | SNB-75 35.2 µM | CAKI-1 > 54 µM | M14 > 100 µM | LOX IMVI 16.2 µM | TK-10 > 100 µM | CCRF-CEM 1.37 µM | HCT-116 23.1 µM | A549 44 µM | NCI-H226 9.62 µM | T47D 1.45 µM | MDA-N 17.7 µM | SF-539 3.65 µM | DU-145 7.52 µM | SF-295 18.7 µM | MCF7 8.73 µM | BT-549 23 µM

O=Cc1ccc(-c2cccs2)s1
inactive: SK-OV-3 > 100 µM | OVCAR-3 12.4 µM | NCI/ADR-RES 42.2 µM | SK-MEL-28 > 100 µM | SNB-75 76 µM | CAKI-1 13.8 µM | M14 > 100 µM | LOX IMVI > 91.8 µM | TK-10 3.88 µM | CCRF-CEM 81.8 µM | HCT-116 39.2 µM | A549 60 µM | NCI-H226 1.94 µM | T47D 46.9 µM | MDA-N > 100 µM | SF-539 > 100 µM | DU-145 > 100 µM | SF-295 > 100 µM | MCF7 1.16 µM | BT-549 51.3 µM

CN(C)Cc1cc(Cl)c(O)c(CN(C)C)c1
inactive: SK-OV-3 > 100 µM | OVCAR-3 > 100 µM | NCI/ADR-RES > 100 µM | SK-MEL-28 > 100 µM | SNB-75 > 100 µM | CAKI-1 > 100 µM | M14 > 100 µM | LOX IMVI > 100 µM | TK-10 > 100 µM | CCRF-CEM > 100 µM | HCT-116 > 100 µM | A549 > 100 µM | NCI-H226 > 100 µM | T47D > 100 µM | MDA-N > 100 µM | DU-145 > 100 µM | SF-295 > 100 µM | MCF7 > 100 µM | BT-549 > 100 µM

COc1cc2ccc1OCc1cccc(n1)COc1ccc(cc1OC)/C=N\c1ccc(cc1)/N=C\2
inactive: SK-OV-3 > 100 µM | OVCAR-3 > 100 µM | NCI/ADR-RES > 100 µM | SNB-75 > 100 µM | CAKI-1 > 100 µM | M14 > 100 µM | LOX IMVI > 100 µM | TK-10 > 100 µM | CCRF-CEM > 100 µM | HCT-116 > 100 µM | A549 > 100 µM | NCI-H226 > 100 µM | T47D > 100 µM | MDA-N > 100 µM | SF-539 > 100 µM | DU-145 > 100 µM | SF-295 > 100 µM | MCF7 > 100 µM | BT-549 > 100 µM

COc1ccc(/N=N/C(=N/NC(=O)c2cc(Cl)ccc2C(=O)c2ccccc2)c2ccc(N(CCC#N)CCC#N)cc2C)cc1
inactive: SK-OV-3 24.4 µM | OVCAR-3 5.04 µM | NCI/ADR-RES 16.7 µM | SK-MEL-28 25.8 µM | SNB-75 27.8 µM | CAKI-1 21.3 µM | M14 18.2 µM | TK-10 18.2 µM | CCRF-CEM 4.54 µM | HCT-116 13.1 µM | A549 18.8 µM | NCI-H226 16.2 µM | T47D 15 µM | MDA-N 21.7 µM | DU-145 19.5 µM | SF-295 26.1 µM | MCF7 25.4 µM | BT-549 29.4 µM

CC(C)(O)C1CC[C@]2(C)CC[C@]3(C)[C@H](CC[C@@H]4[C@@]5(C)CC[C@H](O)C(C)(C)[C@@H]5CC[C@]43C)[C@@H]12 (stereo partly drawn)
inactive: SK-OV-3 23.1 µM | OVCAR-3 24.1 µM | NCI/ADR-RES 29.4 µM | SK-MEL-28 29.2 µM | SNB-75 21.6 µM | CAKI-1 22.1 µM | M14 36.3 µM | TK-10 27.5 µM | CCRF-CEM 74.1 µM | HCT-116 21 µM | A549 30.1 µM | NCI-H226 44.4 µM | T47D 23.1 µM | MDA-N 47.8 µM | SF-539 23.4 µM | DU-145 23.2 µM | SF-295 25.4 µM | MCF7 34.6 µM | BT-549 29.2 µM

CCCCCCc1cc2cc(C(=O)Nc3nc(C45CC6CC(CC(C6)C4)C5)cs3)c(=O)oc2cc1O
inactive: SK-OV-3 20.3 µM | OVCAR-3 13.1 µM | NCI/ADR-RES 17.3 µM | SK-MEL-28 29.3 µM | SNB-75 7.62 µM | CAKI-1 8.81 µM | LOX IMVI 11.2 µM | TK-10 11.3 µM | CCRF-CEM 6.78 µM | HCT-116 3.56 µM | A549 17.7 µM | NCI-H226 19.1 µM | T47D 5.68 µM | MDA-N 11.4 µM | SF-539 10.8 µM | DU-145 22.1 µM | SF-295 4.06 µM | MCF7 13.9 µM | BT-549 23.8 µM

C/C(CC/C(C)=N/O)=N\O
inactive: SK-OV-3 > 100 µM | OVCAR-3 > 100 µM | NCI/ADR-RES > 100 µM | SK-MEL-28 > 100 µM | SNB-75 > 100 µM | CAKI-1 > 100 µM | M14 > 100 µM | LOX IMVI > 100 µM | TK-10 > 100 µM | HCT-116 > 100 µM | A549 > 100 µM | NCI-H226 > 100 µM | T47D > 100 µM | MDA-N > 100 µM | SF-539 > 100 µM | DU-145 > 100 µM | SF-295 > 100 µM | MCF7 > 100 µM | BT-549 > 100 µM

Cc1cc(OP2(=O)NCc3ccncc3O2)ccc1Cl (stereo not drawn)
inactive: OVCAR-3 > 100 µM | NCI/ADR-RES > 100 µM | SK-MEL-28 > 100 µM | SNB-75 > 100 µM | CAKI-1 > 100 µM | M14 > 100 µM | LOX IMVI > 100 µM | CCRF-CEM 44.5 µM | HCT-116 > 100 µM | A549 > 100 µM | NCI-H226 > 100 µM | T47D > 100 µM | MDA-N > 100 µM | SF-539 > 100 µM | DU-145 > 100 µM | SF-295 > 100 µM | MCF7 > 100 µM | BT-549 > 100 µM

C/C(=N\O)c1ccc2cc(Br)c3ccccc3c2c1
inactive: SK-OV-3 32.3 µM | OVCAR-3 16.9 µM | NCI/ADR-RES 19.9 µM | SK-MEL-28 19.3 µM | SNB-75 28.1 µM | CAKI-1 25.1 µM | M14 18.2 µM | LOX IMVI 15.6 µM | TK-10 20.3 µM | CCRF-CEM 17.5 µM | HCT-116 11.9 µM | A549 37 µM | T47D 22.5 µM | MDA-N 15.7 µM | DU-145 39.4 µM | SF-295 15.6 µM | MCF7 17.2 µM | BT-549 27.5 µM

CN1CCN(c2cc3[nH]c(-c4ccc(Cl)cc4)nc3cc2F)CC1
inactive: SK-OV-3 22.2 µM | OVCAR-3 11.8 µM | NCI/ADR-RES 21 µM | SK-MEL-28 8.75 µM | SNB-75 14.7 µM | CAKI-1 19.5 µM | M14 2.84 µM | LOX IMVI 10.5 µM | TK-10 4.37 µM | CCRF-CEM 13.4 µM | HCT-116 13.8 µM | A549 17.6 µM | NCI-H226 6.81 µM | T47D 19.1 µM | MDA-N 12.8 µM | DU-145 22.1 µM | SF-295 15.2 µM | MCF7 7.82 µM | BT-549 15.8 µM

CCC1NC(=O)C1NC(=O)OC (stereo not drawn)
inactive: SK-OV-3 > 100 µM | OVCAR-3 > 100 µM | NCI/ADR-RES > 100 µM | SK-MEL-28 > 100 µM | SNB-75 > 100 µM | CAKI-1 > 100 µM | M14 > 100 µM | LOX IMVI > 100 µM | TK-10 > 100 µM | CCRF-CEM > 100 µM | HCT-116 > 100 µM | NCI-H226 > 100 µM | T47D > 100 µM | MDA-N > 100 µM | SF-539 > 100 µM | DU-145 > 100 µM | SF-295 > 100 µM | MCF7 > 100 µM | BT-549 > 100 µM

O=c1ccn(CC2(CO)CCC2)c(=O)[nH]1
inactive: SK-OV-3 > 100 µM | OVCAR-3 > 100 µM | NCI/ADR-RES > 100 µM | SK-MEL-28 > 100 µM | SNB-75 > 100 µM | CAKI-1 > 100 µM | LOX IMVI > 100 µM | TK-10 > 100 µM | CCRF-CEM > 100 µM | HCT-116 > 100 µM | A549 > 100 µM | NCI-H226 > 100 µM | T47D > 100 µM | MDA-N > 100 µM | SF-539 > 100 µM | DU-145 > 100 µM | SF-295 > 100 µM | MCF7 > 100 µM | BT-549 > 100 µM

From ChEMBL document CHEMBL1201862, “PubChem BioAssay data set” (2004)
